Data on 2 substances can be found in patent US6723702B2, “Use of relaxin treat diseases related to vasoconstriction” (RAS Medical, Inc., priority 2000, dated 2004).

Experiment [1] has as its system conscious rats. Put plainly: Acute infusion of L-NAME during chronic infusion of purified porcine RLX. It counts as in vivo, rat. To be noted: RLX 4 μg/hour s.c. day 5. The method, then: At least 7 days after the implantation of vascular and bladder catheters, osmotic minipumps containing either porcine RLX (4 μg/hour) or vehicle (Ringer's solution) were implanted in intact, female rats (n=7 and 6 rats, respectively). Renal function and MAP were measured on day 5 of relaxin infusion (three 30-minute urine and midpoint blood collections). Next, an infusion of L-NAME (2 μg/minute, a substrate competitive inhibitor of NO synthase) was administered intravenously (i.v.) by infusion pump (Model 200, KD Scientific, Boston, Mass.). Four 1-hour urine collections with midpoint blood samples were collected for the assessment of GFR, ERPF, and ERVR during the L-NAME administration. Identical procedures were performed on additional animals chronically administered porcine RLX (n=5) or vehicle (n=5), except that ANG II (3 ng/minute) was infused rather than L-NAME. Finally, another four, age-matched control rats were administered Ringer's solution instead of either L-NAME or ANG II on day 5 of porcine RLX infusion.
MAP, GFR, ERPF, and ERVR were measured at time zero (baseline), and at 60, 120, 180, and 240 minutes after administering L-NAME and either RLX or vehicle alone. Values represent the mean±SEM. L-NAME (Nω-nitro-L-arginine methyl ester) was infused at 2 μg/minute intravenously, and relaxin was administered at 4 μg/hour by osmotic minipump subcutaneously. There were 7 and 6 rats, respectively, in the RLX and vehicle groups. An asterisk denotes p<0.05; the symbol H denotes p<0.05 for RLX vs. vehicle.

The test system of experiment [2] is intact, female rats. The experiment in a line: Chronic infusion of purified porcine RLX or rhRLX: MAP and renal function in conscious rats. The note with it: chronic infusion 4 μg/hour. It counts as in vivo, rat. The text has this:
Long-Evans female rats aged 10-14 weeks were purchased from Harlan Sprague-Dawley (Frederick, Md.). They were fed PROLAB RMH 2000 diet containing 0.48% sodium (PME Feeds Inc., St. Louis, Mo.) and provided water ad libitum. To prepare the rats for experimental procedures, they were trained for several hours in a Plexiglas restraining cage (Braintree Scientific Co., Braintree, Mass.) on at least five different occasions before surgical intervention. These cages afforded sufficient space for grooming of the face and front paws while preventing the rat from turning around. Thus, accurate timed-urine collections and blood samplings were made possible from the chronically implanted bladder and vascular catheters, respectively. Rats failing to habituate to the cage were eliminated from the study (<1%). All animal procedures were approved by the Institutional Animal Care and Use Committee of the Magee-Womens Research Institute.
The details of the surgical procedures have been previously described. See, e.g., Conrad (1984) Kidney Int. 26:24-29; and Danielson and Conrad (1995) J. Clin. Invest. 96:482-490. […] The bladder catheter, a silastic-covered stainless steel cannula, was sewn into the urinary bladder with a purse-string suture and exteriorized through the ventral abdominal wall. This catheter was then plugged allowing the animal to urinate through the urethra while in her home cage. In the ovariectomized and sham ovariectomized animals, the ovaries were first ligated and then excised, or briefly manipulated, respectively, via a small incision made in the lateral abdominal wall immediately after the insertion of vascular and bladder catheters. All surgeries were conducted using aseptic technique. At least a 7-day recovery period was allowed before experimentation.
For chronic infusion of relaxin, an osmotic minipump was inserted subcutaneously (s.c.) in the back of the animal under ether anesthesia. After shaving and cleaning the skin with alcohol and betadine, a small incision was made and the minipump containing either recombinant human relaxin (rhRLX), purified porcine relaxin (RLX), or vehicle was inserted. Then the incision was closed with surgical staples. The model 2001 and 2ML1 osmotic minipumps (Alza Co., Palo Alto, Calif.) were used for the purified porcine RLX and rhRLX, respectively.
At the beginning of each experiment, immediately after opening the arterial catheter and before infusion of fluids, 100 μl of blood was collected into a heparinized tube. […] The hematocrit was also routinely determined on these midpoint blood samples. […] MAP, GFR, ERPF, and ERVR were assessed on days 2 and 5 of the infusion, and 5-12 days after depletion of the 7-day minipump. […] Circulating relaxin concentrations of 20-40 ng/mL have been measured in rats of 12-14 gestational days. […]

In experiment [3] the test system is endothelial cells. The experiment in a line: Other aspects of endothelial cell phenotype (collagen, metalloproteinase/TIMP-1, invasion, tube formation, chemotaxis). It counts as cell-based. The method, then:
Relaxin was then assayed for the ability to induce proliferation of endothelial cells directly. Relaxin's potential mitogenic effect was tested on human primary umbilical vein, aortic, foreskin, and pulmonary endothelial cells, as well as rat aortic endothelial cells. […] Alterations in other aspects of endothelial cell phenotype that are believed to correlate with angiogenesis were also tested. Relaxin had no effect on collagen expression, judged by SDS-PAGE of ^3H-proline-labeled cellular proteins; or metalloproteinase or tissue inhibitor of metalloproteinase-1 secretion, assessed by gelatin zymography. […] Therefore, relaxin had no apparent effect directly on endothelial cells.

[4] abbreviates: L-NAME 2 μg/minute i.v., 60 min.
Setting [5] is: L-NAME 2 μg/minute i.v., 120 min.
[6] abbreviates: L-NAME 2 μg/minute i.v., 180 min.
Where [7] appears, read: L-NAME 2 μg/minute i.v., 240 min.
Where [8] appears, read: days 2 and 5, rhRLX significant only at day 5.

On to “Porcine RLX: lyophilized, purified porcine relaxin (Sherwood and O'Byrne 1974), dissolved in Ringer's solution”, for which, in experiment [1] (Baseline before L-NAME), the ERPF was determined as 10245, the ERVR is 6.96, the GFR came out at 3050 and the “MAP (mean arterial pressure)” value is given as 120. Also, in experiment [1] (setting [4]), the ERPF was 7520, the ERVR is given as 11.00, the GFR worked out at 2776 and the “MAP (mean arterial pressure)” value came to 135. For the same substance, in experiment [1] (setting [5]), the ERPF was determined as 7030, the ERVR amounted to 11.87, the GFR is on record as 2653 and the “MAP (mean arterial pressure)” value turned out to be 136. Moreover, in experiment [1] (setting [6]), the ERPF is listed as 6530, the ERVR is listed as 12.92, the GFR amounted to 2498 and the “MAP (mean arterial pressure)” value stood at 136. Further, in experiment [1] (setting [7]), the ERPF turned out to be 5973, the ERVR was found to be 14.13, the GFR turned out to be 2392 and the “MAP (mean arterial pressure)” value stood at 139. Besides, in experiment [2] (days 2 and 5 (FIG. 1A)), the “effect on MAP” value was “did not significantly change”. For the same substance, in experiment [2] (setting [8]), the “effect on ERPF” value is listed as “marked increase”, the “effect on ERVR” value is given as “reciprocal reduction” and the “effect on GFR” value is “marked increase”.

With “rhRLX: recombinant human relaxin, identical in amino acid sequence to the product of the human H2 gene; A chain of 24, B chain of 29 amino acids”, the chemotaxis in vitro result in experiment [3] is “nor did it induce chemotaxis”. The collagen expression result in experiment [3] (SDS-PAGE of 3H-proline-labeled cellular proteins) was “no effect”. Moreover, in experiment [3] (Type I collagen or Matrigel substrate), the “ability of endothelial cells to invade the substrate or to form tube structures” value is given as “no effect”. The “metalloproteinase or tissue inhibitor of metalloproteinase-1 secretion” value in experiment [3] (gelatin zymography) is on record as “no effect”.
